In patent US20060089375A1, “Pyrazolo[3,4-b] pyridine compounds, and their use as phosphodiesterase inhibitors” (priority 2002, published 2006):

Biological target: T1, PDE4B (human recombinant) (Homo sapiens, UniProt Q07343)
T1 construct: made in house
Assay: Inhibition of PDE4B activity: radioactive SPA or IMAP Fluorescence Polarisation (FP) assay
Format: biochemical
Conditions: PDE4B inhibitory activity, one reading or average of ca. 2-6 readings, read-out: PDE4B pIC50 (± about 0.5) (converted)
Description: Human recombinant PDE4B, in particular the 2B splice variant thereof (HSPDE4B2B), is disclosed in WO 94/20079 and also M. M. McLaughlin et al., “A low Km, rolipram-sensitive, cAMP-specific phosphodiesterase from human brain: cloning and expression of cDNA, biochemical characterisation of recombinant protein, and tissue distribution of mRNA”, J. Biol. Chem., 1993, 268, 6470-6476. For example, in Example 1 of WO 94/20079, human recombinant PDE4B is described as being expressed in the PDE-deficient yeast Saccharomyces cerevisiae strain GL62, e.g. after induction by addition of 150 uM CuSO4, and 100,000×g supernatant fractions of yeast cell lysates are described for use in the harvesting of PDE4B enzyme.
The ability of compounds to inhibit catalytic activity at PDE4B or 4D (human recombinant), PDE3 (from bovine aorta), PDE5 (human recombinant) or PDE6 (from bovine retina) was determined by Scintillation Proximity Assay (SPA) in 96-well format. Test compounds (preferably as a solution in DMSO, e.g. 0.5 to 1 microlitre (ul) volume) were preincubated at ambient temperature (room temperature, e.g. 19-23° C.) in Wallac Isoplates (code 1450-514) with PDE enzyme in 50 mM Tris-HCl buffer pH 7.5, 8.3 mM MgCl2, 1.7 mM EGTA, 0.05% (w/v) bovine serum albumin for 10-30 minutes (usually 30 minutes). The enzyme concentration was adjusted so that no more than 20% hydrolysis of the substrate defined below occurred in control wells without compound, during the incubation. For the PDE3, PDE4B and PDE4D assays, [5′,8-^3H]Adenosine 3′,5′-cyclic phosphate (Amersham Pharmacia Biotech, code TRK.559; or Amersham Biosciences UK Ltd, Pollards Wood, Chalfont St Giles, Buckinghamshire HP8 4SP, UK) was added to give 0.05 uCi per well and ˜10 nM final concentration. For the PDE5 and PDE6 assays, [8-^3H]Guanosine 3′,5′-cyclic phosphate (Amersham Pharmacia Biotech, code TRK.392) was added to give 0.05 uCi per well and ˜36 nM final concentration. Plates, e.g. containing approx. 100 ul volume of assay mixture, were mixed on an orbital shaker for 5 minutes and incubated at ambient temperature for 1 hour. Phosphodiesterase SPA beads (Amersham Pharmacia Biotech, code RPNQ 0150) were added ([…] per well) to terminate the assay. Plates were sealed and shaken and allowed to stand at ambient temperature for 35 minutes to 1 hour (preferably 35 minutes) to allow the beads to settle. Bound radioactive product was measured using a WALLAC TRILUX 1450 Microbeta scintillation counter. For inhibition curves, 10 concentrations (1.5 nM-30 uM) of each compound were assayed. Curves were analysed using ActivityBase and XLfit (ID. Business Solutions Limited, 2 Ocean Court, Surrey Research Park, Guildford, Surrey GU2 7QB, United Kindgom) Results were expressed as pIC50 values.
The ability of compounds to inhibit catalytic activity at PDE4B (human recombinant) or PDE4D (human recombinant) was determined by IMAP Fluorescence Polarisation ([…]) assay (IMAP Explorer kit, available from Molecular Devices Corporation, Sunnydale, Calif., USA; Molecular Devices code: R^8062) in 384-well format. The IMAP FP assay is able to measure PDE activity in an homogenous, non-radioactive assay format. The FP assay uses the ability of immobilised trivalent metal cations, coated onto nanoparticles (tiny beads), to bind the phosphate group of Fl-AMP that is produced on the hydrolysis of fluorescein-labelled (Fl) cyclic adenosine mono-phosphate (Fl-cAMP) to the non-cyclic Fl-AMP form. […] Binding of Fl-AMP product to the beads (coated with the immobilised trivalent cations) slows the rotation of the bound Fl-AMP and leads to an increase in the fluorescence polarisation ratio of parallel to perpendicular light. Inhibition of the PDE reduces/inhibits this signal increase. […]

T1 sequence (Q07343 1-564 isoform Q07343-2): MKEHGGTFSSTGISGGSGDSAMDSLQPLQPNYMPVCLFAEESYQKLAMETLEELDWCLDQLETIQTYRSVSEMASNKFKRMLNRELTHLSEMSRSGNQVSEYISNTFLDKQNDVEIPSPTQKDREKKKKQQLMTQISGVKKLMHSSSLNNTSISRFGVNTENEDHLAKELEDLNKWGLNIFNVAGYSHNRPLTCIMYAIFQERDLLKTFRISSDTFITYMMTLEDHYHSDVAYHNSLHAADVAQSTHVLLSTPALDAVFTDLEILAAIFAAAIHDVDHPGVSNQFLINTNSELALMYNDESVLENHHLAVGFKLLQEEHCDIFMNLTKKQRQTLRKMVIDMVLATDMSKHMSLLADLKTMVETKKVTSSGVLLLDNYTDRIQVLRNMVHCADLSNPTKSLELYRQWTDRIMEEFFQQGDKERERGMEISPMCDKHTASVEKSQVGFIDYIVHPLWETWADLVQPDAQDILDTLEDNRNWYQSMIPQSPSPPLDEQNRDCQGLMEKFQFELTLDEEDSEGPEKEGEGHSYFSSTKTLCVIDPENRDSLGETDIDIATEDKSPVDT

| IC50 [nM] | Compound |
| --- | --- |
| 0.1 to 6.31 | CCn1ncc2c(NC3CCC(=O)CC3)c(C(=O)NCc3ccc(C(F)(F)F)cc3)cnc21 [Example 267, 1-Ethyl-4-[(4-oxocyclohexyl)amino]-N-{[4-(trifluoromethyl)phenyl]methyl}-1H-pyrazolo[3,4-b]pyridine-5-carboxamide] |
| 0.1 to 6.31 | CCn1ncc2c(NC3CCC(=O)CC3)c(C(=O)NC3Cc4ccccc4C3)cnc21 [Example 271, N-(2,3-Dihydro-1H-inden-2-yl)-1-ethyl-4-[(4-oxocyclohexyl)amino]-1H-pyrazolo[3,4-b]pyridine-5-carboxamide] |
| 0.1 to 6.31 | CCn1ncc2c(NC3CCCCC3)c(C(=O)NCc3ccc(OC)cc3)cnc21 [Example 431, 4-(Cyclohexylamino)-1-ethyl-N-{[4-(methyloxy)phenyl]methyl}-1H-pyrazolo[3,4-b]pyridine-5-carboxamide] |
| 0.1 to 6.31 | CCn1ncc2c(NC3CCOCC3)c(C(=O)NCc3ccc(C)c(Cl)c3)cnc21 [Example 493, N-[(3-Chloro-4-methylphenyl)methyl]-1-ethyl-4-(tetrahydro-2H-pyran-4-ylamino)-1H-pyrazolo[3,4-b]pyridine-5-carboxamide] |
| 0.1 to 6.31 | CCn1ncc2c(NC3CCOCC3)c(C(=O)NCc3ccc(Cl)cc3C)cnc21 [Example 494, N-[(4-Chloro-2-methylphenyl)methyl]-1-ethyl-4-(tetrahydro-2H-pyran-4-ylamino)-1H-pyrazolo[3,4-b]pyridine-5-carboxamide] |
| 0.1 to 6.31 | CCn1ncc2c(NC3CCOCC3)c(C(=O)NCc3ccccc3OC(F)F)cnc21 [Example 495, N-({2-[(Difluoromethyl)oxy]phenyl}methyl)-1-ethyl-4-(tetrahydro-2H-pyran-4-ylamino)-1H-pyrazolo[3,4-b]pyridine-5-carboxamide] |
| 0.1 to 6.31 | CCn1ncc2c(NC3CCOCC3)c(C(=O)NCc3cccc(OC(F)F)c3)cnc21 [Example 498, N-({3-[(Difluoromethyl)oxy]phenyl}methyl)-1-ethyl-4-(tetrahydro-2H-pyran-4-ylamino)-1H-pyrazolo[3,4-b]pyridine-5-carboxamide] |
| 0.1 to 6.31 | CCn1ncc2c(NC3CCOCC3)c(C(=O)NCc3ccc(C)cc3)cnc21 [Example 528, 1-Ethyl-N-[(4-methylphenyl)methyl]-4-(tetrahydro-2H-pyran-4-ylamino)-1H-pyrazolol[3,4-b]pyridine-5-carboxamide] |
| 0.1 to 6.31 | CCn1ncc2c(NC3CCOCC3)c(C(=O)NCc3ccc(C(C)C)cc3)cnc21 [Example 551, 1-Ethyl-N-{[4-(1-methylethyl)phenyl]methyl)-4-(tetrahydro-2H-pyran-4-ylamino)-1H-pyrazolo[3,4-b]pyridine-5-carboxamide] |
| 0.1 to 6.31 | CCc1cc(CC)cc(CNC(=O)c2cnc3c(cnn3CC)c2NC2CCOCC2)c1 [Example 575, N-[(3,5-Diethylphenyl)methyl]-1-ethyl-4-(tetrahydro-2H-pyran-4-ylamino)-1H-pyrazolo[3,4-b]pyridine-5-carboxamide] |
| 0.1 to 6.31 | CCn1ncc2c(NC3CCOCC3)c(C(=O)NCc3cc(Cl)cc(Cl)c3)cnc21 [Example 581, N-[(3,5-Dichlorophenyl)methyl]-1-ethyl-4-(tetrahydro-2H-pyran-4-ylamino)-1H-pyrazolo[3,4-b]pyridine-5-carboxamide] |
| 0.1 to 6.31 | CCn1ncc2c(NC3CCOCC3)c(C(=O)NCc3ccc(C)cc3C)cnc21 [Example 584, N-[(2,4-Dimethylphenyl)methyl]-1-ethyl-4-(tetrahydro-2H-pyran-4-ylamino)-1H-pyrazolo[3,4-b]pyridine-5-carboxamide] |
| 12.6 to 100 | CCn1ncc2c(NC3CCOCC3)c(C(=O)NCc3ccccn3)cnc21 [Example 600, 1-Ethyl-N-(2-pyridinylmethyl)-4-(tetrahydro-2H-pyran-4-ylamino)-1H-pyrazolo[3,4-b]pyridine-5-carboxamide] |
| 0.1 to 6.31 | CCc1ccccc1CNC(=O)c1cnc2c(cnn2CC)c1NC1CCOCC1 [Example 619, 1-Ethyl-N-[(2-ethylphenyl)methyl]-4-(tetrahydro-2H-pyran-4-ylamino)-1H-pyrazolo[3,4-b]pyridine-5-carboxamide] |
| 0.1 to 6.31 | CCn1ncc2c(NC3CCOCC3)c(C(=O)NCc3ccc(Cl)cc3F)cnc21 [Example 622, N-[(4-Chloro-2-fluorophenyl)methyl]-1-ethyl-4-(tetrahydro-2H-pyran-4-ylamino)-IH-pyrazolo[3,4-b]pyridine-5-carboxamide] |
| 0.1 to 6.31 | CCn1ncc2c(NC3CCOCC3)c(C(=O)NCc3cc(C)cc(C)c3)cnc21 [Example 624, N-[(3,5-Dimethylphenyl)methyl]-1-ethyl-4-(tetrahydro-2H-pyran-4-ylamino)-1H-pyrazolo[3,4-b]pyridine-5-carboxamide] |
| 0.1 to 6.31 | CCn1ncc2c(NC3CCOCC3)c(C(=O)NCc3cccc(C)c3C)cnc21 [Example 625, N-[(2,3-Dimethylphenyl)methyl]-1-ethyl-4-(tetrahydro-2H-pyran-4-ylamino)-1H-pyrazolo[3,4-b]pyridine-5-carboxamide] |
| 0.1 to 6.31 | CCn1ncc2c(NC3CCOCC3)c(C(=O)NCc3cccc(Cl)c3Cl)cnc21 [Example 626, N-[(2,3-Dichlorophenyl)methyl]-1-ethyl-4-(tetrahydro-2H-pyran-4-ylamino)-1H-pyrazolo[3,4-b]pyridine-5-carboxamide] |
| 0.1 to 6.31 | CCn1ncc2c(NC3CCOCC3)c(C(=O)NCc3ccc(Br)cc3)cnc21 [Example 628, N-[(4-Bromophenyl)methyl]-1-ethyl-4-(tetrahydro-2H-pyran-4-ylamino)-1H-pyrazolo[3,4-b]pyridine-5-carboxamide] |
| 0.1 to 6.31 | CCn1ncc2c(NC3CCOCC3)c(C(=O)NCc3ccc(I)cc3)cnc21 [Example 630] |
| 0.1 to 6.31 | CCc1ccc(CNC(=O)c2cnc3c(cnn3CC)c2NC2CCOCC2)cc1 [Example 636, 1-Ethyl-N-[(4-ethylphenyl)methyl]-4-(tetrahydro-2H-pyran-4-ylamino)-1H-pyrazolo[3,4-b]pyridine-5-carboxamide] |
| 0.1 to 6.31 | CCn1ncc2c(NC3CCOCC3)c(C(=O)NCc3ccccc3I)cnc21 [Example 638, 1-Ethyl-N-[(2-iodophenyl)methyl]-4-(tetrahydro-2H-pyran-4-ylamino)-1H-pyrazolo[3,4-b]pyridine-5-carboxamide] |
| 0.1 to 6.31 | CCn1ncc2c(NC3CCOCC3)c(C(=O)NCc3c(CO)ccc(Cl)c3Cl)cnc21 [Example 643, N-{[2,3-Dichloro-6-(hydroxymethyl)phenyl]methyl}-1-ethyl-4-(tetrahydro-2H-pyran-4-ylamino)-1H-pyrazolo[3,4-b]pyridine-5-carboxamide] |
| 0.1 to 6.31 | CCn1ncc2c(NC3CCOCC3)c(C(=O)NCc3c(C)cc(Cl)cc3Cl)cnc21 [Example 644, N-[(2,4-Dichloro-6-methylphenyl)methyl]-1-ethyl-4-(tetrahydro-2H-pyran-4-ylamino)-1H-pyrazolo[3,4-b]pyridine-5-carboxamide] |
| 0.1 to 6.31 | CCn1ncc2c(NC3CCOCC3)c(C(=O)NCc3ccc(CC(C)C)cc3)cnc21 [Example 645, 1-Ethyl-N-{[4-(2-methylpropyl)phenyl]methyl}-4-(tetrahydro-2H-pyran-4-ylamino)-1H-pyrazolo[3,4-b]pyridine-5-carboxamide] |
